Values quoted from earlier work as cited in article PMC5571359, “Screening the Medicines for Malaria Venture Pathogen Box across Multiple Pathogens Reclassifies Starting Points for Open-Source Drug Discovery” (Antimicrobial Agents and Chemotherapy, 2017).

tested on: HepG2; conditions: HepG2; ref PBox supporting information; cited from earlier work

SMILES | HepG2 PBox CC20
Nc1ncnc2c1c(Cc1cccc3ccccc13)nn2CC1CCNCC1 [MMV676182] | >80 µM
Clc1ccc(-n2cc(COc3ccnc4ccccc34)nn2)cc1 [MMV675994] | 13.6 µM

same assay, conditions: cited from earlier work

SMILES | CC50
O=C1O[C@@H](COc2ccon2)CN1c1cc(F)c(C2=CCN(Cc3ccccc3)CC2)c(F)c1 [MMV687813] | 30.4 µM
Cc1nn(Cc2ccccc2)c(Cl)c1C(=O)NC1CCCCCC1 [MMV063404] | > 100 µM

same assay, conditions: read-out: HepG2 PBox CC50 µM; HepG2 cytotoxicity; ref PBox supporting information; cited from earlier work

SMILES | CC50
N#Cc1nc(-c2ccccc2)oc1S(=O)(=O)c1ccc(Cl)cc1 [MMV676412] | 2.2 µM
O=C(Nc1cccnc1)c1c(O)c2cccc3c2n(c1=O)CC3 [MMV676395] | > 100 µM
CCCc1ccc(S(=O)(=O)Nc2ccc(CN3CCN(CC4CC4)CC3)cc2)cc1 [MMV688125] | 17.7 µM
COc1ccc2nc(C)cc(OCC(=O)NCc3ccccc3)c2c1 [MMV687189] | > 100 µM
O=C(NC1=NCCS1)c1sc2cc(F)ccc2c1Cl [MMV676584] | > 100 µM
CCC(C)NC(=O)c1ccc(NC(=O)C2(c3ccccc3)CCCC2)cc1 (stereo not drawn) [MMV146306] | > 100 µM
Cc1cc(C)c2cc(C(=O)NC3CCCCCCC3)[nH]c2c1 [MMV687146] | > 100 µM
O=C(C1CCN(c2nnc(-n3cccc3)s2)CC1)N1CCC(Cc2ccccc2)CC1 [MMV676478] | > 100 µM
Cc1ccc(NC(=O)CC2COc3ccccc3O2)cc1Cl (stereo not drawn) [MMV676431] | 66.7 µM
COc1ccc(OC(C)C(=O)Nc2ccc(Cl)cc2C)cc1 (stereo not drawn) [MMV202458] | > 100 µM
CCOC(=O)NC(=O)c1ccsc1NC(=O)c1nc2ccccc2s1 [MMV090930] | 47 µM
Cc1nc2ccccn2c1C(=O)NCc1ccc(Cl)cc1 [MMV012074] | > 100 µM
CCOc1ccc(OCC(=O)Nc2cc(C)cc(C)c2)cc1 [MMV676470] | > 100 µM
CC(C)n1ncc2c(C(=O)NCC(c3cccs3)N3CCOCC3)cc(-c3ccccc3)nc21 (stereo not drawn) [MMV676406] | 58 µM
Cc1ccc2oc(-c3cc(NC(=O)Cc4ccccc4)ccc3Cl)nc2c1 [MMV676509] | 83.6 µM
O=C(NCCc1c[nH]c2ccccc12)c1cc2ccccc2oc1=O [MMV676539] | > 100 µM

same assay, conditions: read-out: HepG2 PBox CC50; HepG2; ref PBox supporting information; cited from earlier work

SMILES | CC50
O=C(NCc1ccco1)N1CCN(Cc2ccc(Cl)s2)CC1 [MMV688555] | > 100 µM
OC[C@H]1O[C@@H](n2c3ccc(Cl)cc3c3c(-c4cc5ccccc5o4)ncnc32)C(O)[C@H]1O (stereo partly drawn) [MMV688921] | 10 µM
CNc1snc(C)c1C(=O)NCCOc1ccc(OC)cc1 [MMV688554] | > 100 µM
CC(=O)NCC1CN(c2ccc(-c3ccc(CO)cc3)c(F)c2)C(=O)O1 (stereo not drawn) [MMV688508] | > 100 µM
CC(C)(C)C(=O)N(CCCCCCN1C[C@H](O)[C@@H](O)[C@H](O)[C@H]1CO)C1CCCCCC1 [MMV688543] | > 50 µM
COC(=O)c1ccc(F)cc1NS(=O)(=O)c1cccc(-c2cnn(Cc3ccccc3)c2)c1 [MMV688350] | 10 µM

same assay, conditions: ref Pbox supporting information; cited from earlier work

SMILES | HepG2 PBox CC20 μMc
COCC(C)NC(=O)CSc1ncnc2sc(-c3ccccc3)cc12 (stereo not drawn) [MMV676536] | >80 µM
Cn1ncc2c(N3CCOCC3)nc(NCCc3c[nH]c4ccccc34)nc21 [MMV676382] | 4.6 µM
COc1cccn2c(C(=O)N3CCCCC3)c(C(F)(F)F)nc12 [MMV1110498] | >80 µM
Oc1c(I)cc(I)c2cccnc12 [MMV002817] | 2.5 µM
Cc1cc(OCC(=O)Nc2ccc(C(C)C)cc2)n(C)c(=O)c1C#N [MMV1198433] | >80 µM
Cc1nn(C(=O)Nc2cccc(C(F)(F)F)c2)c(C)c1Sc1ncccn1 [MMV688552] | 30.7 µM
COc1ccc(-c2cnc3cnc(-c4cccc(OC(C)C)c4)cn23)cc1 [MMV688270] | 24.3 µM
CC(C)(C)c1ccc(N[C@@H]2CCCC[C@H]2NC(=O)c2ccco2)cc1 [MMV675969] | 35.9 µM
Nc1ncc(-c2ccc(C(F)(F)F)nc2)cc1-c1ccc(C(F)(F)F)nc1 [MMV668727] | >80 µM
COC(=O)c1c(NC(=O)c2cc3ccccc3oc2=O)sc2c1CCN(Cc1ccccc1)C2 [MMV676480] | 12.3 µM
